This note sets out measurements from patent US20090018211A1, “Method for inhibiting of COX2 and inflammation with phenolic aldehydes” (Board of Trustees of Michigan State University, priority 2007, published 2009).

For orientation: IC50 means the concentration that inhibits the measured activity by half.

One assay has as its target T1, COX-1 enzyme (Ovis aries, UniProt P05979).
T1 sequence (P05979 25-600): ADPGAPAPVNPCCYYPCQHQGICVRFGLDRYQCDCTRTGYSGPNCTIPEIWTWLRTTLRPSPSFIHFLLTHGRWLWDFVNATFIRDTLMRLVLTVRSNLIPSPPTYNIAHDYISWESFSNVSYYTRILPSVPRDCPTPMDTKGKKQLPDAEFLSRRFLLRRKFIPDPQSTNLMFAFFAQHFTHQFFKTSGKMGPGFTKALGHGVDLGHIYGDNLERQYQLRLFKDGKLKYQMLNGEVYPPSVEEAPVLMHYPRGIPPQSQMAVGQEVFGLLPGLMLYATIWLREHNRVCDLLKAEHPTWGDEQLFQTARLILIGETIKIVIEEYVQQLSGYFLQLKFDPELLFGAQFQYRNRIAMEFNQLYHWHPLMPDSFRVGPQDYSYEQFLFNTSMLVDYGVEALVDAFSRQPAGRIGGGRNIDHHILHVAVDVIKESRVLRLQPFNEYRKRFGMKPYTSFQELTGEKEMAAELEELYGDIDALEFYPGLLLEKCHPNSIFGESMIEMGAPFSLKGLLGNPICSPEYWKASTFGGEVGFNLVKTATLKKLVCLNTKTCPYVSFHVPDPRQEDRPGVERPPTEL
Kind of assay: Cyclooxygenase inhibitory assay (oxygen consumption, arachidonic acid substrate), COX-1. It is filed as biochemical. Conditions: for COX-1 enzyme inhibition: at 100 ppm (FIG. 1). On the procedure:
(§1) Cyclooxygenase enzyme inhibitory assay of the extracts and compounds were carried out using COX-1 and COX-2 enzymes according to the previously published procedures (Jayaprakasam, B. et al., 2006. J. Agric. Food Chem., 54, 5375-5381).
(§2) Cyclooxygenase Inhibitory Activity. The rate of oxygen consumption during the initial phase of the enzyme-mediated reaction, with arachidonic acid as substrate was measured using a Model 5300 biological oxygen monitor (Yellow Spring Instrument, Inc., Yellow Spring, Ohio). The test compounds, extracts and positive controls were dissolved in DMSO and an aliquot of 10 μL of each was added to the reaction chamber containing 0.6 mL of Tris buffer (0.1 M, pH 7) and, 1 mM of phenol, hemoglobin (17 μg). COX-1 or -2 enzymes (10 μL) was added to the chamber and incubated for 3 min. The reaction was initiated by the addition of arachidonic acid (10 μL of 1 mg/mL solution). Instantaneous inhibition was measured by using Quick Log Data acquisition and control computer software (Strawberry Tree Inc., Sunnyvale, Calif., USA). The percent inhibition was calculated with respect to DMSO control. Each sample was assayed twice and the standard deviation was calculated for n=2. Aspirin, Celebrex and Vioxx were used as positive controls.

Another assay deals with T2, COX-2 enzyme (Homo sapiens, UniProt P35354).
T2 sequence (P35354 18-604): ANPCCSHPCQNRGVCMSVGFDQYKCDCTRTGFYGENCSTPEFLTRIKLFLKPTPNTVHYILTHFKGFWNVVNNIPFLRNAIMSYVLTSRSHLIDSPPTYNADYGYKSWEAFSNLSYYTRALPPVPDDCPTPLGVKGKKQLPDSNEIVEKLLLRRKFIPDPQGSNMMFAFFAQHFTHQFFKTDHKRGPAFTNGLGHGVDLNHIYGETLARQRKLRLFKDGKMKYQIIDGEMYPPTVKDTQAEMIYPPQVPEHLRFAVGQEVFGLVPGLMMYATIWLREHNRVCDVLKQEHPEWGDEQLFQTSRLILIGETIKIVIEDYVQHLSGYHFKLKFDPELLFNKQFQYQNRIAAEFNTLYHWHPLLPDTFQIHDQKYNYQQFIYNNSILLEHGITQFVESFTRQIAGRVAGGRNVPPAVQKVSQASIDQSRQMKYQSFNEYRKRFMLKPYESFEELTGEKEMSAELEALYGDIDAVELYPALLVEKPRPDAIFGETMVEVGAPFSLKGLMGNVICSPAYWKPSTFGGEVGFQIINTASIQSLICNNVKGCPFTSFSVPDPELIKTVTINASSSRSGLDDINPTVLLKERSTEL
Kind of assay: Cyclooxygenase inhibitory assay (oxygen consumption, arachidonic acid substrate), COX-2. It is filed as biochemical. Conditions: for COX-2 enzyme inhibition: at 100 ppm (FIG. 1). As to the method: as §1, §2

With `O=Cc1ccccc1` [A, Benzaldehyde], the COX-1 enzyme inhibition entry at COX-1 enzyme was “not active”. Also, the COX-2 enzyme inhibition result on COX-2 enzyme is “not active”.

Take `O=Cc1ccc(O)c(O)c1O` [Compound J, 2,3,4-trihydroxybenzaldehyde]: at COX-1 enzyme (even at a 500 ppm concentration (FIG. 2)), the “activity on COX-1 enzyme” value is “not active”. Moreover, the “selective inhibition of COX-2 enzyme” value at COX-2 enzyme (FIG. 1, 100 ppm, versus COX-1) is “selectively inhibited COX-2 enzyme”. For the same compound, the concentration for half-maximal inhibition (IC50) at COX-2 enzyme (dose response (FIG. 2), read-out: IC50, inhibition of COX-2 (converted)) is approximately 64.9 µM.

Turning to `O=Cc1cccc(O)c1` [C, 3-hydroxybenzaldehyde], on COX-1 enzyme (FIG. 1, 100 ppm, versus COX-2), the “selective inhibition of COX-1 enzyme” value is “selectively inhibited COX-1 enzyme”.

As for `O=Cc1cc(O)c(O)cc1O` [K, 2,4,5-trihydroxybenzaldehyde], the COX-1 enzyme inhibition entry on COX-1 enzyme was “not active”. On COX-2 enzyme, the COX-2 enzyme inhibition entry is on record as “not active”.
